# Test system: YAP/TAZ-TEAD transcription
# Experiment: Reporter gene assay for measuring the inhibition of YAP/TAZ-TEAD transcription
# Type: cell-based
# Conditions: Homo sapiens, HEK-293T; Hek293T cells transiently transfected with TEAD-responsive element luciferase reporter; 24 hours incubation
# Method: Hek293T cells are cultured in DMEM supplemented with 10% fetal bovine serum, Sodium pyruvate, Sodium bicarbonate, L-glutamine. The cells are harvested and transiently transfected with TEAD-responsive element luciferase reporter. Transfected cells are plated in 384-wells plate containing pre-diluted compounds. After 24 hours incubation at 37° C./5% CO2, assay plates were cooled down to RT and levelled to an equal volume per well, prior to the addition of 25 uL luciferase substrate SteadyLite (Perkin Elmer)/well. The plate was shaken for 10 min at 600 rpm, centrifuged for 1 min at 500 rpm and measured with an Envision reader (PerkinElmer). The amount of relative light units produced by the TEAD reporter is used to calculated percent of inhibition.
# The percent of reporter inhibition was calculated in the presence of a positive control inhibitor (100% inhibition) versus a condition with the presence of the vehicle basal activity of the reporter (0% inhibition). The ability of a test compound to inhibit this activity was determined as: Percentage inhibition=[1−((RLU determined in the presence of vehicle−RLU determined for sample with test compound present) divided by (RLU determined in the presence of vehicle−RLU determined for sample with positive control inhibitor))]*100 The activities of example compounds tested are depicted in Table 8. The activity ranges A, B and C refer to IC50 values in the reporter gene assay as follows: “A”: EC50<1 μM; “B”: 1 μM≤EC50≤3.0 μM and “C”: EC50>3.0 μM, NT=not tested.
row,Structure (SMILES),EC50
1,"CCC(=O)N1CCc2c(nc(Cc3cccc(F)c3)nc2-c2ccn(C)n2)C1 [Cpd. No. 44, 1-(2-(3-fluorobenzyl)-4-(1-methyl-1H-pyrazol-3-yl)-5,8-dihydropyrido[3,4-d]pyrimidin-7(6H)-yl)propan-1-one]",> 3000 nM
2,"CS(=O)(=O)NCC(=O)N1Cc2nc(Cc3ccccc3)nc(-c3ccn(Cc4cccnc4)n3)c2C1 [Cpd. No. 28, N-(2-(2-benzyl-4-(1-(pyridin-3-ylmethyl)-1H-pyrazol-3-yl)-5,7-dihydro-6H-pyrrolo[3,4-d]pyrimidin-6-yl)-2-oxoethyl)methanesulfonamide]",> 3000 nM
3,"CC(=O)NCC(=O)N1Cc2nc(-c3ccccc3)nc(-c3ccn(Cc4cccnc4)n3)c2C1 [Cpd. No. 26, N-(2-oxo-2-(2-phenyl-4-(1-(pyridin-3-ylmethyl)-1H-pyrazol-3-yl)-5,7-dihydro-6H-pyrrolo[3,4-d]pyrimidin-6-yl)ethyl)acetamide]",> 3000 nM
4,"Cn1ccc(-c2nc(-c3ccccc3)nc3c2CN(S(C)(=O)=O)C3)n1 [Cpd. No. 16, 4-(1-methyl-1H-pyrazol-3-yl)-6-(methylsulfonyl)-2-phenyl-6,7-dihydro-5H-pyrrolo[3,4-d]pyrimidine]",> 3000 nM
5,"C=CC(=O)NC1CCc2nc(-c3ccccc3)nc(-c3ccn(C)n3)c2C1 (stereo not shown) [Cpd. No. 2, N-(4-(1-methyl-1H-pyrazol-3-yl)-2-phenyl-5,6,7,8-tetrahydroquinazolin-6-yl)acrylamide]",> 3000 nM
6,"CCC(=O)NC1CCc2c(nc(-c3ccccc3)nc2-c2ccn(Cc3cccnc3)n2)C1 (stereo not shown) [Cpd. No. 12, N-(2-phenyl-4-(1-(pyridin-3-ylmethyl)-1H-pyrazol-3-yl)-5,6,7,8-tetrahydroquinazolin-7-yl)propionamide]",> 3000 nM
7,"Cn1ccc(-c2nc(Cc3ccccc3)nc3c2CCN(S(C)(=O)=O)C3)n1 [Cpd. No. 34, 2-benzyl-4-(1-methyl-1H-pyrazol-3-yl)-7-(methylsulfonyl)-5,6,7,8-tetrahydropyrido[3,4-d]pyrimidine]",> 3000 nM
8,"C=CC(=O)NC1CCc2c(nc(-c3ccccc3)nc2-c2ccn(C)n2)C1 (stereo not shown) [Cpd. No. 6, N-(4-(1-methyl-1H-pyrazol-3-yl)-2-phenyl-5,6,7,8-tetrahydroquinazolin-7-yl)acrylamide]",> 3000 nM
9,"CS(=O)(=O)N1Cc2nc(-c3ccccc3)nc(-c3ccn(Cc4cccnc4)n3)c2C1 [Cpd. No. 25, 6-(methylsulfonyl)-2-phenyl-4-(1-(pyridin-3-ylmethyl)-1H-pyrazol-3-yl)-6,7-dihydro-5H-pyrrolo[3,4-d]pyrimidine]",1000 to 3000 nM
10,"CCC(=O)NC1CCc2nc(-c3ccccc3)nc(-c3ccn(Cc4cccnc4)n3)c2C1 (stereo not shown) [Cpd. No. 10, N-(2-phenyl-4-(1-(pyridin-3-ylmethyl)-1H-pyrazol-3-yl)-5,6,7,8-tetrahydroquinazolin-6-yl)propionamide]",> 3000 nM
11,"Cn1ccc(-c2nc(-c3ccc(C(F)(F)F)cc3)nc3c2CCN(S(C)(=O)=O)C3)n1 [Cpd. No. 79, 4-(1-methyl-1H-pyrazol-3-yl)-7-(methylsulfonyl)-2-(4-(trifluoromethyl)phenyl)-5,6,7,8-tetrahydropyrido[3,4-d]pyrimidine]",1000 to 3000 nM
12,"CS(=O)(=O)NC1CCc2c(nc(-c3ccccc3)nc2-c2ccn(Cc3cccnc3)n2)C1 (stereo not shown) [Cpd. No. 13, N-(2-phenyl-4-(1-(pyridin-3-ylmethyl)-1H-pyrazol-3-yl)-5,6,7,8-tetrahydroquinazolin-7-yl)methanesulfonamide]",> 3000 nM
13,"O=S(=O)(F)CCN1Cc2nc(Cc3ccccc3)nc(-c3ccn(Cc4cccnc4)n3)c2C1 [Cpd. No. 30, 2-(2-benzyl-4-(1-(pyridin-3-ylmethyl)-1H-pyrazol-3-yl)-5,7-dihydro-6H-pyrrolo[3,4-d]pyrimidin-6-yl)ethane-1-sulfonyl fluoride]",> 3000 nM
14,"CNS(=O)(=O)CCN1Cc2nc(-c3ccccc3)nc(-c3ccn(Cc4cccnc4)n3)c2C1 [Cpd. No. 31, N-methyl-2-(2-phenyl-4-(1-(pyridin-3-ylmethyl)-1H-pyrazol-3-yl)-5,7-dihydro-6H-pyrrolo[3,4-d]pyrimidin-6-yl)ethane-1-sulfonamide]",1000 to 3000 nM
15,"O=S(=O)(F)CCN1Cc2nc(-c3ccccc3)nc(-c3ccn(Cc4cccnc4)n3)c2C1 [Cpd. No. 29, 2-(2-phenyl-4-(1-(pyridin-3-ylmethyl)-1H-pyrazol-3-yl)-5,7-dihydro-6H-pyrrolo[3,4-d]pyrimidin-6-yl)ethane-1-sulfonyl fluoride]",> 3000 nM
16,"CCC(=O)N1Cc2nc(Cc3ccccc3)nc(-c3ccn(Cc4cccnc4)n3)c2C1 [Cpd. No. 18, 1-(2-benzyl-4-(1-(pyridin-3-ylmethyl)-1H-pyrazol-3-yl)-5,7-dihydro-6H-pyrrolo[3,4-d]pyrimidin-6-yl)propan-1-one]",1000 to 3000 nM
17,"Cn1ccc(-c2nc(Cc3ccccc3)nc3c2CN(S(C)(=O)=O)C3)n1 [Cpd. No. 22, 2-benzyl-4-(1-methyl-1H-pyrazol-3-yl)-6-(methylsulfonyl)-6,7-dihydro-5H-pyrrolo[3,4-d]pyrimidine]",> 3000 nM

# Results, then the compound that gave them:
row,EC50,Structure (SMILES)
1,1000 to 3000 nM,"C=CC(=O)N1CCc2c(nc(-c3ccccc3)nc2-c2ccncc2)C1 [Cpd. No. 66, 1-(2-phenyl-4-(pyridin-4-yl)-5,8-dihydropyrido[3,4-d]pyrimidin-7(6H)-yl)prop-2-en-1-one]"
2,< 1000 nM,C=CC(=O)N1CCc2c(nc(-c3ccccc3)nc2-c2cnn(C)c2)C1 [Cpd. No. 56]
3,< 1000 nM,"CCC(=O)N1CCc2c(nc(-c3ccc(C(F)(F)F)cc3)nc2-c2ccn(C)n2)C1 [Cpd. No. 85, 1-(4-(1-methyl-1H-pyrazol-3-yl)-2-(4-(trifluoromethyl)phenyl)-5,8-dihydropyrido[3,4-d]pyrimidin-7(6H)-yl)propan-1-one]"
4,< 1000 nM,"C=CC(=O)N1CCc2c(nc(Cc3ccc(F)cc3)nc2-c2ccn(C)n2)C1 [Cpd. No. 41, 1-(2-(4-fluorobenzyl)-4-(1-methyl-1H-pyrazol-3-yl)-5,8-dihydropyrido[3,4-d]pyrimidin-7(6H)-yl)prop-2-en-1-one]"
5,< 1000 nM,"C=CC(=O)N1CCc2c(nc(-c3ccc(C(F)(F)F)cc3)nc2-c2nnnn2C)C1 [Cpd. No. 82, 1-(4-(1-methyl-1H-tetrazol-5-yl)-2-(4-(trifluoromethyl)phenyl)-5,8-dihydropyrido[3,4-d]pyrimidin-7(6H)-yl)prop-2-en-1-one]"
6,1000 to 3000 nM,"CCC(=O)N1CCc2c(nc(-c3ccccc3)nc2-c2ccn(C)n2)C1 [Cpd. No. 40, 1-(4-(1-methyl-1H-pyrazol-3-yl)-2-phenyl-5,8-dihydropyrido[3,4-d]pyrimidin-7(6H)-yl)propan-1-one]"
7,1000 to 3000 nM,"Cn1ccc(-c2nc(-c3ccc(C(F)(F)F)cc3)nc3c2CCN(C(=O)CC#N)C3)n1 [Cpd. No. 75, 3-(4-(1-methyl-1H-pyrazol-3-yl)-2-(4-(trifluoromethyl)phenyl)-5,8-dihydropyrido[3,4-d]pyrimidin-7(6H)-yl)-3-oxopropanenitrile]"
8,1000 to 3000 nM,"CCC(=O)N1Cc2nc(Cc3ccccc3)nc(-c3ccn(C)n3)c2C1 [Cpd. No. 21, 1-(2-benzyl-4-(1-methyl-1H-pyrazol-3-yl)-5,7-dihydro-6H-pyrrolo[3,4-d]pyrimidin-6-yl)propan-1-one]"
9,< 1000 nM,"C=CC(=O)N1CCc2c(nc(-c3ccc(C(F)(F)F)cc3)nc2-c2nnn(C)n2)C1 [Cpd. No. 81, 1-(4-(2-methyl-2H-tetrazol-5-yl)-2-(4-(trifluoromethyl)phenyl)-5,8-dihydropyrido[3,4-d]pyrimidin-7(6H)-yl)prop-2-en-1-one]"
10,1000 to 3000 nM,"CCC(=O)N1Cc2nc(-c3ccccc3)nc(-c3ccn(Cc4cccnc4)n3)c2C1 [Cpd. No. 24, 1-(2-phenyl-4-(1-(pyridin-3-ylmethyl)-1H-pyrazol-3-yl)-5,7-dihydro-6H-pyrrolo[3,4-d]pyrimidin-6-yl)propan-1-one]"
11,< 1000 nM,"CN(C)C/C=C/C(=O)N1CCc2c(nc(-c3ccc(C(F)(F)F)cc3)nc2-c2ccn(C)n2)C1 [Cpd. No. 83, (E)-4-(dimethylamino)-1-(4-(1-methyl-1H-pyrazol-3-yl)-2-(4-(trifluoromethyl)phenyl)-5,8-dihydropyrido[3,4-d]pyrimidin-7(6H)-yl)but-2-en-1-one]"
12,< 1000 nM,"Cn1ccc(-c2nc(-c3ccc(C(F)(F)F)cc3)nc3c2CCN(C(=O)C2=CCCC2)C3)n1 [Cpd. No. 84, cyclopent-1-en-1-yl(4-(1-methyl-1H-pyrazol-3-yl)-2-(4-(trifluoromethyl)phenyl)-5,8-dihydropyrido[3,4-d]pyrimidin-7(6H)-yl)methanone]"
13,< 1000 nM,"C=CC(=O)N1CCc2c(nc(Cc3ccc(C(F)(F)F)cc3)nc2-c2ccn(C)n2)C1 [Cpd. No. 45, 1-(4-(1-methyl-1H-pyrazol-3-yl)-2-(4-(trifluoromethyl)benzyl)-5,8-dihydropyrido[3,4-d]pyrimidin-7(6H)-yl)prop-2-en-1-one]"
14,< 1000 nM,"C=CC(=O)N1Cc2nc(Cc3ccccc3)nc(-c3ccn(Cc4cccnc4)n3)c2C1 [Cpd. No. 17, 1-(2-benzyl-4-(1-(pyridin-3-ylmethyl)-1H-pyrazol-3-yl)-5,7-dihydro-6H-pyrrolo[3,4-d]pyrimidin-6-yl)prop-2-en-1-one]"

# — patent US12516064B2, “Tetrahydropyridopyrimidines and related analogs for inhibiting YAP/TAZ-TEAD” (THE KATHOLIEKE UNIVERSITEIT LEUVEN, priority 2022, dated 2026)
